Source: patent US20080187572A1, “Matrix Metalloproteinase Inhibitors of Tgfb-Induced Subcapsular Cataract Formation” (McMaster University, priority 2005, published 2008)
“Also recorded” adds a separate entry of the source.

Experiments:
[1] = tested on: TGFβ-induced rat lens cataract; assay: Optical analysis (BVD error) in ex-vivo TGFβ-induced rat lens cataract model
[2] = tested on: TGFβ-induced subcapsular cataract formation; assay: Subcapsular plaque/opacity formation in cultured rat lenses (photography); assay type: cell-based; details: 6 days
Procedure: The previously established TGFβ-induced rat lens model was utilized for these studies. Briefly, lenses were obtained from adult male Wistar rats and cultured in 3.5 ml of serum free M199 medium supplemented with 50 IU/ml penicillin, 50 μg/ml streptomycin and 2.5 μg/ml fungizone (Amersham Biosciences) overnight. […] Some lenses were co-treated with TGFβ2 and the […], GM6001 (liomastat) (Chemicon International) at concentrations ranging from 10 to 25 μM or the MMP-2-9 inhibitor ((2R)-[(4-Biphenylylsulfonyl)amino]-N-hydroxyl-3-phenylpropionamide) (Chemicon) concentrations of either 10 and 25 μM. The GM6001 negative control (N-t-Butoxycarbonyl-L-leucyl-L-tryptophan Methylamide) (Calbiochem) (25 μM) was also employed. Lenses were then harvested at subsequent time-points of 2, 4 or 6 days and then photographed using a digital camera mounted to a dissecting scope. The lenses were then fixed for histology and immunofluorescence, or used for optical analysis. The conditioned media was also collected from each treatment group for zymography and western blot analysis.
The MMP inhibitor GM6001 was employed in the rat subcapsular cataract model in order to determine whether it could effectively suppress TGFβ-induced subcapsular cataract formation. To carry out these experiments, excised rat lenses were treated with exogenous TGFβ for a period of 6 days. […]

[3] = tested on: MMP-9; assay: Western blot of conditioned media for MMP-9 with densitometry; assay type: cell-based, rat; details: for MMP-9 protein in conditioned media (western blot, densitometry), FIG. 5B,C: co-treated with TGFβ 2 ng/ml, compared with TGFβ alone
Procedure: Equal volumes of sample were electrophoresed on a 10% SDS-polyacrylamide gel. The resolved bands were electro-transferred onto a nitrocellulose membrane (Pall Corporation). Membranes were blocked with 5% skimmed milk powder in Tris-buffered saline (50 mM Tris base, NaCl pH 8.5) and 0.1% Tween-20 and then incubated overnight at 4° C. with a polyclonal antibody generated against MMP-9 (1:500; Chemicon International) or MMP-2 (1:500:Chemicon International) or E-adherin (1:1500; ED Transduction Laboratories).
(§1) Following this incubation, membranes were probed with an HRP-conjugated secondary antibody (1:7500;Amersham Biosciences) and ECL detection reagents (Amersham Biosciences). The western blots were scanned by a densitometer and analyzed by image quantification software (ImageJ, NIH, USA). The relative density versus control ratio (RD/C) was estimated using Graph Pad Prism Program (GraphPad). Quantitative data were analyzed statistically using a student's t-test and expressed as ± standard deviation. A value of p<0.05 was considered significant.
The western blot data for MMP-9 from three separate experiments were analyzed by densitometry and the results are shown in FIG. 5C. Values are expressed as the Relative Density versus control ratio (RD/C)± standard deviation of 3 blots.

[4] = tested on: alpha smooth muscle actin (α-SMA); assay: Immunofluorescent localization of αSMA in lens cross-sections; assay type: cell-based, rat; details: co-cultured with TGFβ 2 ng/ml, 6 days
Procedure: Lenses were collected from different treatment groups and fixed overnight in 1:99 acetic acid: ethanol solution, dehydrated, embedded in paraffin, and processed for routine histology. For histological analysis, 5 μm sections were stained with hematoxylin and eosin. Immunofluorescence was performed on 5 μm thick paraffin-embedded sections. Sections were incubated with primary antibody specific for alpha smooth muscle actin (α-SMA, 1:100, Sigma) and bound primary antibodies were visualized with a fluorescein-isothiocyanate (FITC) anti-mouse secondary antibody, (1:50, Jackson ImmunoResearch Laboratories). All sections were mounted in Vectasheild mounting medium with 4′,6-Diaminodino-2-Phenylindol (DAPI, Vector Laboratories) to visualize the nuclei.
To carry out these experiments, excised rat lenses were treated with exogenous TGFβ for a period of 6 days. An untreated control lens (A), a lens treated with TGF-β (2 ng/mL) (B), a lens co-cultured with TGFβ (2 ng/mL) and GM6001 (25 μM) (C) and a lens co-cultured with TGF-β and MMPI-2/9 (2 umol/L) (D) are shown following 6 days of culture.

[5] = tested on: E-cadherin fragment; assay: E-cadherin shedding, western blot of conditioned media; assay type: cell-based, rat; details: co-cultured with TGFβ, 6 day treatment
Procedure: (§2) To confirm the identity of the specific MMPs corresponding to the gelatinolytic bands in the zymograms and quantitate their levels over the 6 day time period, concentrated conditioned media from the treatment groups, control, TGFβ, TGFβ plus GM6001 (25 μM) and TGFβ plus MMPI-2/9, from three treatment times days 2, 4 and […], was subjected to western blot analysis using antibodies specific for both MMP-2 and MMP-9. Equal volumes of sample were electrophoresed on a 10% SDS-polyacrylamide gel. The resolved bands were electro-transferred onto a nitrocellulose membrane (Pall Corporation). Membranes were blocked with 5% skimmed milk powder in Tris-buffered saline (50 mM Tris base, NaCl pH 8.5) and 0.1% Tween-20 and then incubated overnight at 4° C. with a polyclonal antibody generated against MMP-9 (1:500; Chemicon International) or MMP-2 (1:500:Chemicon International) or E-adherin (1:1500; ED Transduction Laboratories).
To determine whether TGFβ treatment of the rat lens results in an induction of E-cadherin shedding and whether this can be modulated by MMPIs, previously concentrated conditioned media was obtained from the 6 day treatment groups outlined earlier, and subjected to western blot analyses using an antibody specific for extracellular domain of E-cadherin, and used in previous studies to detect the presence of soluble E-cadherin fragments. […]

[6] = tested on: MMP-2; assay: Western blot of conditioned media for MMP-2; assay type: cell-based, rat; details: co-cultured with TGFβ
Procedure: as §2
as §1, with “The relative density versus control ratio (RD/C) was estimated using Graph Pad Prism Program (GraphPad).” left out, “A value of p<0.05 was considered significant.” left out

[7] = tested on: E-cadherin mRNA; assay: E-cadherin mRNA in lens epithelium by LCM and RT-QPCR; assay type: cell-based, rat; details: 6 day treatment; for E-cadherin mRNA level in lens epithelium versus TGFβ alone, FIG. 6B / E-cadherin mRNA level in lens epithelium versus controls, FIG. 6B: co-treated with TGFβ
Procedure: E-cadherin mRNA expression in the rat lens epithelial region was determined for lenses from different treatment groups, TGF-β, TGF-β plus GM6001 (25 μM), TGF-β plus MMPI-2/9 or control (6 day treatment time), using Real time quantitative PCR, (RT-QPCR). For these experiments, cryostat sections of lenses were subjected to Laser Capture Microdissection (LCM) in order to specifically isolate the cells. LCM was used to further ensure that cells of the subcapsular plaques were obtained and not left adherent to the underlying fiber cell mass, which may have occurred with manual dissection. Following treatment, lenses were placed in a cryostat mould containing Tissue-Tek OCT (Sakura Finetek Torrance, Calif.), and frozen on dry ice then stored at −70° C. The frozen tissue was then sectioned at 5-8 μm in a cryostat, mounted on non-coated clean glass slides, and stored again at −70° C. Immediately before Laser Capture Microdissection (LCM), the frozen sections were thawed for 10 seconds and then stained with HistoGene™LCM Frozen Section Staining kit (Arcturus, Mountain View, Calif.) using the protocol provided with strict adherence to RNAse-free conditions. The slides were then dried for 5 minutes after which LCM of the tissue was completed within two hours. LCM was then performed using the PixCell II (Arcturus), as described by others. The HistoGene stain allowed for the identification of the general morphology of the epithelium. Cells from the epithelium of the lens were then captured on CapSure Macro LCM Caps (Arcturus) using the PixCell II LCM Microscope (Arcturus) with a minimal beam diameter of 7.5 μrm. Total cellular RNA was then extracted from lifted cells using a PicoPure™ RNA Isolation kit (Arcturus Engineering Inc). Purified RNA was analyzed both qualitatively and quantitatively using an Agilent 2100 Bioanalyser (Agilent Technologies, Foster City, Calif., USA). Standard 20 μl reverse transcription reactions were preformed (SuperScript II, Life Technologies). The quality of the recovered cDNA was measured using a microfluidic gel analyzer (Agilent Technologies). E-Cadherin gene expression from recovered cDNA was analyzed using RT-PCR using a 96 well TaqMan optical reaction plate format on an ABI Prism 7700 sequence detection system (Applied Biosystems, Foster City, Calif., USA). RNA was normalized to 18S for each reaction. Each 25 μl PCR reaction (including controls) contained TaqMan Universal master mix, gene-specific forward and reverse primers (Mobix, Hamilton), and probes for target and endogenous control genes (Applied Biosystems). Serial dilutions (1-5 fold) of standard samples were set up in separate wells in duplicate, for both 18S and E-cadherin gene targets. Standard and unknown samples were added in a volume of 5 μl. Thermal cycling parameters consisted of the following: 2 minutes at 50° C., 10 minutes at 95° C. followed by 40 cycles of 15 seconds at 95° C. and 1 minute at 60° C. The number of target gene copies was calculated from a standard curve generated in parallel with each batch of samples. A linear relationship was detected over at least five orders of magnitude. In all experiments, the correlation coefficient was between 0.997 and 0.986. […] All PCR for E-cadherin cDNA quantification were performed using standard cDNA dilution curves. Quantitative data were analyzed statistically using a student's t-test and expressed as ±standard deviation. […]

[8] = tested on: MMPs with gelatinolytic activity (MMP-2, MMP-9); assay: Gelatin zymography of lens conditioned media; assay type: cell-based, rat; details: co-treated with TGFβ, 6 day time point, relative to TGFβ treated lenses
Procedure: An equal volume of each concentrate was electrophoresed on 10% SDS-polyacrylamide gels containing either 1 mg/ml gelatin or 2% beta-casein at a final concentration of 0.1% as the substrate. Following electrophoresis the gels were developed as described previously and stained in 0.5% coomassie brilliant blue for 1 hr followed by destaining with 10% iso-propanol. Sites of gelatinase or caseinase activity were detected as clear bands against a background of uniform staining, which was digitally photographed.
To examine the timing and level of induction of MMPs In subcapsular cataract formation zymography was performed on conditioned media of lenses from three different treatment groups (control, TGFβ, TGFβ plus GM6001 (25 μM)) and TGFβ plus MMPI-2/9 at the 6 day time point.

[9] = TGFβ 2 ng/ml plus 25 μM test substance, 6 days

CNC(=O)[C@H](Cc1c[nH]c2ccccc12)NC(=O)[C@@H](CC(=O)NO)CC(C)C [GM6001]
BVD error versus control lenses, FIG. 3 ([1]; TGFβ 2 ng/ml plus 10 μM test substance, 6 days): significantly different from control lenses | BVD error versus control lenses, FIG. 3 ([1]; TGFβ 2 ng/ml plus 15 μM test substance, 6 days): significantly different from control lenses | BVD error versus control lenses, FIG. 3 ([1]; TGFβ 2 ng/ml plus 20 μM test substance, 6 days): not significantly different from the control lenses | BVD error versus control lenses, FIG. 3 [1, 9]: not significantly different from the control lenses | Dosage effect on TGFβ-induced BVD error ([1]; TGFβ 2 ng/ml plus 10, 15, 20, 25 μM, 6 days): decrease in BVD error as the GM6001 concentration increases to 25 μM | BVD error (back vertex variability), FIG. 2 ([1]; day 6, lenses co-treated with TGF-β and GM6001, compared with TGF-β treated groups): both the TGF-β treated groups of lenses exhibited a significantly larger BVD error than the control group or the GM6001 co-treated lenses | Subcapsular plaques / opacities, FIG. 4 ([2]; co-cultured with TGFβ 2 ng/mL, 25 μM): remained devoid of opacities | MMP-9 protein in conditioned media (western blot, densitometry), FIG. 5B,C [3]: significant reduction (**P<0.001); also recorded: significantly attenuated | αSMA immunoreactivity in lens sections, FIG. 4 ([4]; 25 μM): no observable immunoreactivity to αSMA | E-cadherin fragment in conditioned media, FIG. 6A [5]: Suppression in the levels of the E-adherin fragment | MMP-2 protein in conditioned media (western blot), FIG. 5B [6]: undetectable levels, similar to controls | E-cadherin mRNA level in lens epithelium versus TGFβ alone, FIG. 6B [7]: significantly higher than those treated with TGFβ alone | E-cadherin mRNA level in lens epithelium versus controls, FIG. 6B [7]: significantly higher than that of controls | Levels of gelatinolytic bands in conditioned media, FIG. 5A [8]: reduced levels of all gelationolytic bands

O=C(NO)[C@@H](Cc1ccccc1)NS(=O)(=O)c1ccc(-c2ccccc2)cc1 [MMPI-2/9, (2R)-[(4-Biphenylylsulfonyl)amino]-N-hydroxyl-3-phenylpropionamide]
Subcapsular plaques / opacities, FIG. 4 ([2]; co-cultured with TGF-β): remained devoid of opacities | MMP-9 protein in conditioned media (western blot, densitometry), FIG. 5B,C [3]: significant attenuation of MMP-9 | αSMA immunoreactivity in lens sections, FIG. 4 ([4]; inhibitor): no observable immunoreactivity to αSMA | E-cadherin fragment in conditioned media, FIG. 6A [5]: undetectable | MMP-2 protein in conditioned media (western blot), FIG. 5B [6]: undetectable levels, similar to controls | E-cadherin mRNA level in lens epithelium versus TGFβ alone, FIG. 6B [7]: significantly higher than those treated with TGFβ alone | E-cadherin mRNA level in lens epithelium versus controls, FIG. 6B [7]: significantly higher than that of controls | Levels of gelatinolytic bands in conditioned media, FIG. 5A [8]: reduced levels of all gelationolytic bands

CNC(=O)[C@H](Cc1c[nH]c2ccccc12)NC(=O)[C@H](CC(C)C)NC(=O)OC(C)(C)C [negative control for GM6001, N-t-Butoxycarbonyl-L-leucyl-L-tryptophan Methylamide]
BVD error versus control lenses, FIG. 3 [1, 9]: significantly different from the controls

B1: TGFβ: TGFβ2 (R&D Systems), growth factor used to induce subcapsular cataract in cultured rat lenses (protein, UniProt P61812 303-414, looked up)
Transforming growth factor …: ALDAAYCFRNVQDNCCLRPLYIDFKRDLGWKWIHEPKGYNANFCAGACPYLWSSDTQHSRVLSLYNTINPEASASPCCVSQDLEPLTILYYIGKTPKIEQLSNMIVKSCKCS
BVD error versus controls ([1]; TGFβ alone, 6 days): statistically greater than in controls | MMP-9 in conditioned media versus control, FIG. 5C ([3]; TGFβ 2 ng/ml alone): significant upregulation (*P<0.001) | Suppression of E-cadherin mRNA in plaque tissue versus normal lens epithelium ([7]; TGFβ alone): ~4 fold
